Measurements as given in US11744804B2, “Microcapsule powder stable in gastric acid, method for preparing same, and use thereof” (HOBOOMLIFE BIO-TECHNOLOGY (SHENZHEN) CO., LTD., priority 2021, dated 2023).

Experiment: Release test in artificial intestinal juice
Type: physicochemical
Conditions: for Dissolution rate of core material after 1 h / Dissolution rate of core material after 2 h / Dissolution rate of core material after 3 h / Dissolution rate of core material after 4 h: artificial intestinal juice, 37° C., 100 r/min; for Retention rate of NADH before test: before artificial intestinal juice test
Protocol: A Tablet Four-Usage Tester was used for testing. The tester was started for preheating. The temperature was set at 37° C. A basket shaft and a basket were installed. A positioning ball used for positioning (marked) was put into a dissolution cup (900 mL of prepared artificial intestinal juice was added into each dissolution cup) and fixed. 200 mg of sample 2 and 200 mg of sample 5 in the examples as well as 200 mg of corresponding core materials were taken respectively, wrapped with gauze and put into corresponding baskets. After being rotated at 100 r/min for 1, 2, 3 and 4 h, 1 mL of liquid was taken from each of the dissolution cups. The contents of the core materials in the samples were detected by the same detection method as in Example 1.
Retention rate of core material=(Theoretical embedding amount of core material in sample-Content of core material in artificial intestinal juice detected)/Theoretical embedding amount of core material in sample. The theoretical embedding amount of the core material in the sample is the added amount of the core material in the sample.

Dissolution rate of core material after 1 h [%] | Dissolution rate of core material after 2 h [%] | Dissolution rate of core material after 3 h [%] | Dissolution rate of core material after 4 h [%] | Retention rate of NADH before test [%] | SMILES
99.6 | 99.5 | 99.4 | 99.5 | 100 | NC(=O)C1=CN([C@@H]2O[C@H](COP(=O)(O)OP(=O)(O)OC[C@H]3O[C@@H](n4cnc5c(N)ncnc54)[C@H](O)[C@@H]3O)[C@@H](O)[C@H]2O)C=CC1 [NADH, reduced nicotinamide adenine dinucleotide]
98.4 | 99.7 | 99.3 | 99.1 | 100 | NC(=O)C1=CN([C@@H]2O[C@H](COP(=O)(O)OP(=O)(O)OC[C@H]3O[C@@H](n4cnc5c(N)ncnc54)[C@H](OP(=O)(O)O)[C@@H]3O)[C@@H](O)[C@H]2O)C=CC1 [NADPH, reduced nicotinamide adenine dinucleotide phosphate]
